Laboratory results as given in ChEMBL document CHEMBL1201862, “PubChem BioAssay data set” (2004).
The source made the active and inactive calls.

Legend:
Cytochrome P450 2D6 = Cytochrome P450 2D6 (Homo sapiens, UniProt P10635);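 note: CYP2D6 member of a cytochrome P450 panel assay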
Cytochrome P450 2C9 = Cytochrome P450 2C9 (Homo sapiens, UniProt P11712)
H4 = test: Luminescence Cell-Based Dose Response HTS to Identify Activators of 5'UTR Stem-Loop Driven Prion Protein mRNA Translation in H4 Neuroglioblastoma Cells. [Related pubchem assays: 1829 (Project Summary), 1814 (Primary HTS)]; type: functional; conditions: Homo sapiens
[1] = Luminescence Cell-Based Dose Response HTS to Identify Activators of Luciferase Translation or Activity in H4 […] Cells. [Related pubchem assays: 1829 (Project Summary), 1814 (Primary HTS)]; type: functional
[2] = HEp-2 cell cytotoxicity, dose response, cytotoxicity control for RSV inhibitor project, HTS (AID 2410); type: functional; conditions: human respiratory syncytial virus
[3] = Luminescence Cell-Based Dose Response HTS to Identify Inhibitors of 5'UTR Stem-Loop Driven Prion Protein mRNA Translation in H4 Neuroglioblastoma Cells. [Related pubchem assays: 1827 (Project Summary), 1813 (Primary HTS)]; type: functional
Cytochrome P450 2C19 = Cytochrome P450 2C19 (Homo sapiens, UniProt P33261); test: Cytochrome panel assay with activity outcomes. Panel member name: p450-cyp2c19 Compounds with AC50 equal or less than 10 uM are considered active; type: functional
Sequence of Cytochrome P450 2C19 (P33261 whole entry): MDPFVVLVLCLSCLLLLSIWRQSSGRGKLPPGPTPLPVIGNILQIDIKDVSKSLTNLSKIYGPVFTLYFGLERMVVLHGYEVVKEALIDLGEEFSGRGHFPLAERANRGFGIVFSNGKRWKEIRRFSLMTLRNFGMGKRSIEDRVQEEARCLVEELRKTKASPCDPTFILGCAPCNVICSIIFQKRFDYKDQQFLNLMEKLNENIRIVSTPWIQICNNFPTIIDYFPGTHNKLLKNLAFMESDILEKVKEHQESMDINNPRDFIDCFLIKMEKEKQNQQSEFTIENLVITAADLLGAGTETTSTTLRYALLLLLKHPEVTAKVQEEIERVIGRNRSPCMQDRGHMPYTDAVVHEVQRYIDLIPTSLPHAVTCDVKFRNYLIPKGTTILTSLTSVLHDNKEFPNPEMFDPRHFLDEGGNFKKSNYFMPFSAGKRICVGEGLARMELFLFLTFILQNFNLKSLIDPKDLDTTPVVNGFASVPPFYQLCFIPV

Cytochrome P450 1A2 = biological target: T1, Cytochrome P450 1A2 (Homo sapiens, UniProt P05177);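 note: PubChem cytochrome P450 panel assay, CYP1A2 panel member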
T1 sequence (P05177 whole entry): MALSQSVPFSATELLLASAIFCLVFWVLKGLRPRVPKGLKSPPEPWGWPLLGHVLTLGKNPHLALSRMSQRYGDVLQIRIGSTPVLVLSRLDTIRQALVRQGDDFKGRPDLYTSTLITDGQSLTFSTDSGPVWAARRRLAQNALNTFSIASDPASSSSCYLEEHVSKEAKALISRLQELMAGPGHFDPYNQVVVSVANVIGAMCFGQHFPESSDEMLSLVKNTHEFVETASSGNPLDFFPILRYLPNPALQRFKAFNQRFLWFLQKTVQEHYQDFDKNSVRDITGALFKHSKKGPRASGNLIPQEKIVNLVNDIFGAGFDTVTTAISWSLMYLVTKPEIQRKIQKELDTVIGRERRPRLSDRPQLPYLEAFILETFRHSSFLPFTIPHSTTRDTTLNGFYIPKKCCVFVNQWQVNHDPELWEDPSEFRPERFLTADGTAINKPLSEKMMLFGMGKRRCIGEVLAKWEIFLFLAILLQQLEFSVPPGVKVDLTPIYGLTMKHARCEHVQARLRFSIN

Cytochrome P450 3A4 = Cytochrome P450 3A4 (Homo sapiens, UniProt P08684);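 note: CYP3A4 tested as one member of a cytochrome P450 panel screen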
Sequence of Cytochrome P450 3A4 (P08684 whole entry): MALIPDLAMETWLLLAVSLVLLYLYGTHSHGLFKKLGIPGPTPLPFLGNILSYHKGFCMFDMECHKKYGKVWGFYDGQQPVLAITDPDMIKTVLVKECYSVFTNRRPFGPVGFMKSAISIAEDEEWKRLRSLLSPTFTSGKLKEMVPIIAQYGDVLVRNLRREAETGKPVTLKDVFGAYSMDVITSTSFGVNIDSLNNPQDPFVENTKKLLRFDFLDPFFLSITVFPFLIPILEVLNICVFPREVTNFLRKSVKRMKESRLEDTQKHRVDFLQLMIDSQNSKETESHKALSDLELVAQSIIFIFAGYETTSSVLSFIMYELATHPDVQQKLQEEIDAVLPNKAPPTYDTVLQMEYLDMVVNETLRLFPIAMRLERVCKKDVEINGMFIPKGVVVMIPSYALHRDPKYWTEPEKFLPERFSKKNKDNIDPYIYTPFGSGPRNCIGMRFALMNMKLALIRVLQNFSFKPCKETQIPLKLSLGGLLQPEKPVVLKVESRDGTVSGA

[4] = biological target: T2, Heat shock factor protein 1 (Mus musculus, UniProt P38532); test: inhibition of MG132-induced HSE-luciferase signal, confirmation, cell-based, NIH3T3, luminescence, dose retest (AID 2382); type: functional;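 note: NIH3T3 fibroblasts with HSF1-driven luciferase reporter stressed by proteasome inhibitor MG132; luminescence from HSF1-driven luciferase expression after 8 hours of MG132 stress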
T2 sequence (P38532 whole entry): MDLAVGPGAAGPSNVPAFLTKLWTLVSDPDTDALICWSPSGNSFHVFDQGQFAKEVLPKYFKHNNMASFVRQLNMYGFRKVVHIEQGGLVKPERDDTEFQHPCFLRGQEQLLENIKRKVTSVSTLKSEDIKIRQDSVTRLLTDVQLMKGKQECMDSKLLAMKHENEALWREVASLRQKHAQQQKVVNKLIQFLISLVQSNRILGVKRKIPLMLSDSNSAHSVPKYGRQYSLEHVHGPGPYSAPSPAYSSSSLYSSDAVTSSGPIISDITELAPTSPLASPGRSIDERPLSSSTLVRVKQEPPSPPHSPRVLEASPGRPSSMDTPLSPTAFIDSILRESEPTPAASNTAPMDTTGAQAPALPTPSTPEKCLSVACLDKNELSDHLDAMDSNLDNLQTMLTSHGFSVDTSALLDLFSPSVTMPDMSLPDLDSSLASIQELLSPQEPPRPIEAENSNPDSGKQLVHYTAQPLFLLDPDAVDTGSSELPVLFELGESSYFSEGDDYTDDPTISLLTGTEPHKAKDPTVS

Sequence of Cytochrome P450 2D6 (P10635 whole entry): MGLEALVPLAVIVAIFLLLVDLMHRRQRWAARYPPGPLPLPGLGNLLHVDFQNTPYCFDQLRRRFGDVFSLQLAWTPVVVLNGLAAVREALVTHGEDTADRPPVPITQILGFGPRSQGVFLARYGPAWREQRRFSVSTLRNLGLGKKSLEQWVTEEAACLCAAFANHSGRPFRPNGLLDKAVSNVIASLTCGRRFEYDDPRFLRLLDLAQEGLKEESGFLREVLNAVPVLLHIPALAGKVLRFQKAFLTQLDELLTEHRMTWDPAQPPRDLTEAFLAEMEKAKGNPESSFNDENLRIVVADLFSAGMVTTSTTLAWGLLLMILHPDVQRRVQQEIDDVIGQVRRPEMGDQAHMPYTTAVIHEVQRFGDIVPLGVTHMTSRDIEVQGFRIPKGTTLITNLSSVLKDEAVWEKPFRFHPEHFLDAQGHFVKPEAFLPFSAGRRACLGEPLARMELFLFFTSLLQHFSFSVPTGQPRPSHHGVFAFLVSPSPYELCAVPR
Sequence of Cytochrome P450 2C9 (P11712 whole entry): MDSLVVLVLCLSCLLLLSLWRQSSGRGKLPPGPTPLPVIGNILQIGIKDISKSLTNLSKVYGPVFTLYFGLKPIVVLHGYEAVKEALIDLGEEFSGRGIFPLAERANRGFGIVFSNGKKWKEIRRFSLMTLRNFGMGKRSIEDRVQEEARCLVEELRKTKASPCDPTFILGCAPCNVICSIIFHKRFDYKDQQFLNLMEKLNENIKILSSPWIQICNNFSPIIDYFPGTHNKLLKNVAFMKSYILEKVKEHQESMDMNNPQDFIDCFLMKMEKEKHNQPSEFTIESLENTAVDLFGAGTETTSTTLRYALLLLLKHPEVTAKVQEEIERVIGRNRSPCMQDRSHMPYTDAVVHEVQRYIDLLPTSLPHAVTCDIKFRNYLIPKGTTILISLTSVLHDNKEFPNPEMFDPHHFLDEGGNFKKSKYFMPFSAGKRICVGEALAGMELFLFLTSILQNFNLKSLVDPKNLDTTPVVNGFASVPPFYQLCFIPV

SMILES: Cc1cccc(Cn2cnc3c(NS(C)(=O)=O)c(C)c(C)cc32)c1
- AC50 (Cytochrome P450 2D6): 35.5 µM (inconclusive)
- AC50 (Cytochrome P450 2C9): 1.26 µM (inconclusive)

SMILES: S=C(c1ccc(-c2ccc(Cl)cc2Cl)o1)N1CCCCC1
- EC50 (H4): 1.97 µM (active)
- EC50 [1]: 50 µM (active)

SMILES: CCOC(=O)c1c(C)[nH]c(C2=NN=C(NC3CC3)SC2)c1C
- CC50 [2]: 28.1 µM (active)

SMILES: COc1cc(/C=C2/C(=N)N3N=C(CC(=O)N4CCOCC4)SC3=NC2=O)ccc1OCc1ccccc1
- EC50 (H4): 14.5 µM (active)
- EC50 [1]: 10.5 µM (active)

SMILES: Cc1ccc2nc(-c3ccc(NC(=O)COC(=O)c4ccc([N+](=O)[O-])o4)cc3)sc2c1
- EC50 [3]: 10.9 µM (inconclusive)

SMILES: Cc1noc(C)c1C(=O)N1CCC[C@@]2(CCN(c3ccccc3)C2)C1
- AC50 (Cytochrome P450 2C19): 25.1 µM (inconclusive)
- AC50 (Cytochrome P450 1A2): 25.1 µM (inconclusive)
- AC50 (Cytochrome P450 2C9): 20 µM (inconclusive)

SMILES: Cc1noc(C)c1-c1ccc2ncnc(Nc3ccc(F)cc3)c2c1
- AC50 (Cytochrome P450 3A4): 15.8 µM (inconclusive)
- AC50 (Cytochrome P450 2D6): 39.8 µM (inconclusive)

SMILES: CCOC(=O)C1=C(NC(=S)NC(=O)c2ccccc2)c2ccccc2CC1(C)CC (stereo unspecified)
- CC50 [2]: 12.5 µM (active)

SMILES: Cc1csc(NC(=O)C2=COCCO2)n1
- EC50 (H4): > 120 µM (not active)
- EC50 [1]: 3.11 µM (active)

SMILES: Cc1ccccc1CSc1nccn1-c1ccccc1
- AC50 (Cytochrome P450 2D6): 17.8 µM (inconclusive)

SMILES: CC(=O)Nc1ccc(O)c(-c2nc3ccccc3s2)c1
- EC50 (H4): 22.5 µM (active)
- EC50 [1]: 21.2 µM (active)

SMILES: COc1cc(C(=O)Nc2ccccc2NC(=O)c2cc(OC)c(OC)c(OC)c2)cc(OC)c1OC
- EC50 [4]: > 195 µM (not active)

SMILES: CC(C)NC(=O)COC(=O)C1CSC2(c3ccc(Br)cc3)CCC(=O)N12 (stereo unspecified)
- EC50 [4]: > 195 µM (not active)

SMILES: COc1ccccc1-c1ccc2ncnc(N(C)C)c2c1
- AC50 (Cytochrome P450 2D6): 12.6 µM (inconclusive)

SMILES: CCn1c(SCc2nc3ccccc3[nH]2)nnc1-c1ccc(OC)cc1
- AC50 (Cytochrome P450 2D6): 20 µM (inconclusive)

SMILES: CC1CCN(C(S)=NCCc2ccccc2)CC1
- EC50 (H4): 31.3 µM (active)
- EC50 [1]: 0.102 µM (active)

SMILES: CCCNC(=O)Nc1ccc2c(c1)nc(C)n2C
- AC50 (Cytochrome P450 2C19): 0.562 µM (inconclusive)
- AC50 (Cytochrome P450 1A2): 15.8 µM (inconclusive)

SMILES: O=C(CN1c2ccccc2Sc2ccccc21)NNC(=O)Nc1ccc(Cl)cc1
- CC50 [2]: > 50 µM (active)

SMILES: CN(C)C(=O)c1ccc(-c2ccc3ncnc(NCc4cccs4)c3c2)cc1
- AC50 (Cytochrome P450 2D6): 20 µM (inconclusive)

SMILES: c1ccc(CCCNc2nnnc3ccccc23)cc1
- AC50 (Cytochrome P450 2C19): 3.16 µM (inconclusive)

SMILES: O=C(COC(=O)COc1ccccc1)Nc1ccc(OC(F)(F)F)cc1
- AC50 (Cytochrome P450 2C19): 39.8 µM (inconclusive)

SMILES: c1ccc2c(c1)-c1nc3ccccc3cc1[C@H]2N1CCOCC1
- AC50 (Cytochrome P450 2C19): 3.16 µM (inconclusive)
- AC50 (Cytochrome P450 2C9): 6.31 µM (inconclusive)

SMILES: CN(NC1OC(=O)c2ccccc21)c1ccc(C(F)(F)F)cc1[N+](=O)[O-] (stereo unspecified)
- EC50 [4]: > 195 µM (not active)

SMILES: CCc1nn(C(C)C(=O)N2CCN(c3ccccc3)CC2)c(=O)c2cc3occc3n12 (stereo unspecified)
- CC50 [2]: 20.4 µM (active)

SMILES: Nc1ncnc2[nH]c(N3CCN(C(=O)c4ccccc4)CC3)nc12
- EC50 [4]: > 195 µM (not active)

SMILES: COc1ccc2nc(O)c(CNc3ccccc3)cc2c1
- CC50 [2]: 34.4 µM (active)

SMILES: CCCOc1ccc(-c2n[nH]c(S)n2)cc1
- CC50 [2]: 25.1 µM (active)

SMILES: CC1Cc2ccccc2N1C(=O)Cn1c(=O)cc(O)c2ccccc21 (stereo unspecified)
- AC50 (Cytochrome P450 2C19): 22.4 µM (inconclusive)
- AC50 (Cytochrome P450 2D6): 39.8 µM (inconclusive)

SMILES: CCCNC(=O)c1ccc(COc2ccc(CCC)cc2OC)o1
- EC50 [4]: > 195 µM (not active)

SMILES: CCOC(=O)N1CCN(c2nc(-c3cccs3)nc3ccccc23)CC1
- CC50 [2]: > 50 µM (active)

SMILES: COc1cccc(Nc2cc(C)c3ccccc3n2)c1
- CC50 [2]: 32 µM (active)

SMILES: Cc1cc(-c2ccc(C)c(S(=O)(=O)NCCC(C)N3CCCCCC3)c2)on1 (stereo unspecified)
- EC50 [4]: > 195 µM (not active)

SMILES: CCOC(=O)c1c(-c2ccccc2)cn2ccccc12
- AC50 (Cytochrome P450 3A4): 12.6 µM (inconclusive)
- AC50 (Cytochrome P450 2D6): 3.16 µM (inconclusive)

SMILES: CC1(C)Cc2c(C#N)c(NCCO)nc(-c3ccco3)c2CO1
- EC50 [4]: > 195 µM (not active)

SMILES: O=C(NCc1ccccc1C(F)(F)F)C1CC(c2ccc(C(F)(F)F)cc2)=NO1 (stereo unspecified)
- EC50 [4]: > 195 µM (not active)

SMILES: COc1ccc(NC(=O)C2C(c3ccccc3)C2(Cl)Cl)cc1 (stereo unspecified)
- CC50 [2]: 17.7 µM (active)

SMILES: COc1ccc([C@H]2CC(=O)C=C(c3ccc(Cl)c(C(F)(F)F)c3)C2)cc1
- CC50 [2]: 12.9 µM (active)

SMILES: CC(CCc1ccccc1)NC(=O)CCNS(=O)(=O)c1ccccc1 (stereo unspecified)
- EC50 [4]: > 195 µM (not active)

SMILES: COc1ccc2c(C)cc(N3CCOCC3)nc2c1
- AC50 (Cytochrome P450 2C19): 31.6 µM (inconclusive)

SMILES: CNc1ncncc1-c1ccccc1C(F)(F)F
- AC50 (Cytochrome P450 2C19): 39.8 µM (inconclusive)
- AC50 (Cytochrome P450 2D6): 39.8 µM (inconclusive)

SMILES: C/C=C/c1ccc(OCC(=O)NCc2ccccc2OC)c(OC)c1
- CC50 [2]: 40.4 µM (active)

SMILES: CC/C(O)=C(\C#N)c1nnc2n1CCCCC2
- AC50 (Cytochrome P450 2C19): 1 µM (inconclusive)
- AC50 (Cytochrome P450 1A2): 14.1 µM (inconclusive)

SMILES: O=C(COC(=O)/C=C/c1ccc(C(F)(F)F)cc1)NC1CC1
- EC50 [4]: > 195 µM (not active)

SMILES: c1ccc2c(NC3CC3)nc(-c3ccoc3)nc2c1
- AC50 (Cytochrome P450 2C19): 25.1 µM (inconclusive)

SMILES: Cn1c(CSc2nc3cc(Br)ccc3[nH]2)nc2ccccc21
- CC50 [2]: > 50 µM (active)

SMILES: COc1ccc(NC(=O)C(F)(F)F)cc1OC
- AC50 (Cytochrome P450 2C19): 22.4 µM (inconclusive)
- AC50 (Cytochrome P450 2C9): 39.8 µM (inconclusive)

SMILES: COC(=O)c1ccccc1NC(=O)c1ccc(F)cc1
- AC50 (Cytochrome P450 2C19): 25.1 µM (inconclusive)

SMILES: C/C(=N/NC(=O)CNC(=O)c1ccccn1)c1ccc([N+](=O)[O-])cc1
- EC50 [4]: > 195 µM (not active)

SMILES: CCO/C(O)=C1\C(C)=NC2=C(C(=O)CCC2)C1c1cn(Cc2ccc(Cl)cc2Cl)nc1-c1ccccc1 (stereo unspecified)
- CC50 [2]: 30.6 µM (active)

SMILES: COc1ccc(/C=N/N(C)C2=NCCN2)c(OC)c1OC
- EC50 [4]: > 195 µM (not active)

SMILES: Cc1ccc(/N=C/c2ccc[nH]2)c(O)c1
- EC50 [4]: > 195 µM (not active)

SMILES: CCOC(=O)C(/C=N/CC(=O)O)=C(\O)OCC
- AC50 (Cytochrome P450 2D6): 39.8 µM (inconclusive)

SMILES: Nc1nc2ccc(Cl)cc2c2nc(-c3ccco3)nn12 [CGS-15943]
- AC50 (Cytochrome P450 3A4): 7.94 µM (inconclusive)
- AC50 (Cytochrome P450 2D6): 12.6 µM (inconclusive)
- AC50 (Cytochrome P450 2C9): 31.6 µM (inconclusive)
